Laboratory results taken from patent US20230219962A1, “PYRAZOLO[4,3-d]PYRIMIDINE DERIVATIVES AND METHODS OF USE THEREOF FOR THE TREATMENT OF CELLULAR PROLIFERATIVE DISORDERS” (Merck Sharp & Dohme LLC, priority 2020, published 2023).

Columns and labels:
[1] = molecular target: T1, hTLR7 (Homo sapiens, UniProt Q9NYK1); assay: Human TLR7 Reporter Assay; assay type: cell-based; conditions: HEK-Blue hTLR7 cells, 16 hours, normalized to CL097 (6 μM) and DMSO
T1 construct: host or cells: HEK-Blue hTLR7 cells (HEK293-derived, own knowledge)
T1 sequence (Q9NYK1 27-1049): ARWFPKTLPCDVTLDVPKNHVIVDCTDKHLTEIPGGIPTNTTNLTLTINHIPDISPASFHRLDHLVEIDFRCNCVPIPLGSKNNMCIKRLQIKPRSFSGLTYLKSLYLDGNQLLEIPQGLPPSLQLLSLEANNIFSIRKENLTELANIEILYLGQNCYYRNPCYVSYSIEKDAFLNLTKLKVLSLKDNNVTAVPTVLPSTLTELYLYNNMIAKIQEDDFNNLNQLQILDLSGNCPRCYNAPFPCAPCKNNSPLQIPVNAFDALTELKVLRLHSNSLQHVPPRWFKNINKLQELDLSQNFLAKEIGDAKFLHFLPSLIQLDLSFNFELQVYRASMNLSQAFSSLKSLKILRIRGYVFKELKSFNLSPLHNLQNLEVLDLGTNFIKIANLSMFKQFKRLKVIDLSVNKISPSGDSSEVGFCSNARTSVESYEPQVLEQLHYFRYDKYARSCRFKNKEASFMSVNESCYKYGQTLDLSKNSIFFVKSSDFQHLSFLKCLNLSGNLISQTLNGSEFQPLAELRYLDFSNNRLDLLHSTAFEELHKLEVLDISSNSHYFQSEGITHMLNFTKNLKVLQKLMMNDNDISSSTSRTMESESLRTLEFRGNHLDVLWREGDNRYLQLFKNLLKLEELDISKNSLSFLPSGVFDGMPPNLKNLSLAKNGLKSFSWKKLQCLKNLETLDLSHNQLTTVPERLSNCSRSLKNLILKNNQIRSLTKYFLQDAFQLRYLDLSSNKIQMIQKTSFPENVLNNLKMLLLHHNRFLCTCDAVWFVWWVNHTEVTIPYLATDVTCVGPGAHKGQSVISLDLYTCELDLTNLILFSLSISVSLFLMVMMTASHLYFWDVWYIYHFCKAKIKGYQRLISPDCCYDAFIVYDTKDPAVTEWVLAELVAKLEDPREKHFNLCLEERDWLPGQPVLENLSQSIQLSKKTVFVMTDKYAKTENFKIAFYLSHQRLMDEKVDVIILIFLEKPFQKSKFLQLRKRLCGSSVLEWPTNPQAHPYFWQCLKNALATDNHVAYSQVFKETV
How it was run: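 HEK-Blue hTLR7 reporter cells (20,000/well) incubated 16 h at 37 °C with 10-point 3-fold compound dilutions; SEAP read by absorbance at 620 nm. Effects normalized between CL097 (6 μM) and DMSO controls; EC50 from 4-parameter fit.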

[2] = molecular target: T2, hTLR8 (Homo sapiens, UniProt Q9NR97); assay: Human TLR8 Reporter Assay; assay type: cell-based; conditions: HEK-Blue hTLR8 cells, 16 hours, normalized to tl8-506 (1 μM) and DMSO
T2 construct: host or cells: HEK-Blue hTLR8 cells (HEK293-derived, own knowledge)
T2 sequence (Q9NR97 27-1041): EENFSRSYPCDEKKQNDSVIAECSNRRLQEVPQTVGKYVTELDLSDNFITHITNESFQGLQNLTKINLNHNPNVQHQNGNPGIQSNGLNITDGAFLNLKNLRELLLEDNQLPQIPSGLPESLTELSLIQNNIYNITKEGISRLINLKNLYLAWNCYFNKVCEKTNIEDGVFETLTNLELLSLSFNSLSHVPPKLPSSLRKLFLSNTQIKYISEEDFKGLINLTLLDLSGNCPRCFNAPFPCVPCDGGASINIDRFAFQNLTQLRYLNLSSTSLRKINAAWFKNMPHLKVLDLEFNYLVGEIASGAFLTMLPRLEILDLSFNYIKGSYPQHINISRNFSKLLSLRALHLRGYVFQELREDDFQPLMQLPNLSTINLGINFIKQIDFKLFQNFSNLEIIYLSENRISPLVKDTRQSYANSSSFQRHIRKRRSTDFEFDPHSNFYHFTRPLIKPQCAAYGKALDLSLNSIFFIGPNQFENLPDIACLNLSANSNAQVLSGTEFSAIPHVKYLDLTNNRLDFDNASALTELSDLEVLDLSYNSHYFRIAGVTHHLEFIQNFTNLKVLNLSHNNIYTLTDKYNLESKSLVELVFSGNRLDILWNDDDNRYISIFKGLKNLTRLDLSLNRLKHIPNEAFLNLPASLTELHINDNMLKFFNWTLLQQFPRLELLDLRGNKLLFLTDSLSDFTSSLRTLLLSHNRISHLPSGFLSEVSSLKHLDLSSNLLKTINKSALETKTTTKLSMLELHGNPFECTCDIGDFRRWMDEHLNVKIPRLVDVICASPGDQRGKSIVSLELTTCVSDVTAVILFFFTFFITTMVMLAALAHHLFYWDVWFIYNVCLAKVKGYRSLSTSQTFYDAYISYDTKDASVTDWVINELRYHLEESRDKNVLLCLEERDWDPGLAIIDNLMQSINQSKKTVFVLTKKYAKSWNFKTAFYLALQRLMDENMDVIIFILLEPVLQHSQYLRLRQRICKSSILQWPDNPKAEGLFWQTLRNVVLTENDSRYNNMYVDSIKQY
How it was run: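 HEK-Blue hTLR8 cells (20,000/well) incubated 16 h at 37 °C with 10-point 3-fold compound dilutions in HEK-Blue Detection medium; reporter read as absorbance at 620 nm. Effects normalized between DMSO and tl8-506 (1 μM); EC50 from 4-parameter fit.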

CCCCNc1nc(N)nc2cn(Cc3cc(OC)c(CN(C)CCCN4C(=O)C=CC4=O)cc3OC)nc12 [Compound 143]
EC50 [1]: 360 nM | EC50 [2]: > 3330 nM

C=CCN(C)Cc1cc(OC)c(Cn2cc3nc(N)nc(NC(C)CCC)c3n2)c(OC)c1 (centres unmarked) [Compound 158]
EC50 [1]: 21.8 nM | EC50 [2]: 178 nM

CCC[C@@H](CO)Nc1nc(N)nc2cn(Cc3c(OC)cc(C(CN)N(C)CCC)cc3OC)nc12 (some centres unmarked) [Compound 221]
EC50 [1]: 5090 nM | EC50 [2]: 3490 nM

CCC[C@@H](CO)Nc1nc(N)nc2cn(Cc3ccc(CN4CC(CN)C4)cc3OC)nc12 [Compound 149]
EC50 [1]: 5180 nM | EC50 [2]: 1180 nM

CCCCNc1nc(N)nc2cn(Cc3cc(C)no3)nc12 [Compound 171]
EC50 [1]: 516 nM | EC50 [2]: 2520 nM

CCCCNc1nc(N)nc2cn(Cc3ccc(C(C)NC)cc3OC)nc12 (centres unmarked) [Compound 194]
EC50 [1]: 139 nM | EC50 [2]: 137 nM

CCCCNc1nc(N)nc2cn(Cc3ccc(C(C)N(C)C)cc3OC)nc12 (centres unmarked) [Compound 219]
EC50 [1]: 122 nM | EC50 [2]: 275 nM

CCCCNc1nc(N)nc2cn(Cc3c(OC)cc(CN4CCN(C(=O)C5CCC(CN6C(=O)C=CC6=O)CC5)CC4)cc3OC)nc12 (centres unmarked) [Compound 74]
EC50 [1]: 3330 nM | EC50 [2]: > 29900 nM

CCC[C@@H](CO)Nc1nc(N)nc2cn(Cc3ncccc3OC)nc12 [Compound 133]
EC50 [1]: 114 nM | EC50 [2]: 161 nM

CCCCNc1nc(N)nc2cn(Cc3c(OC)ccc(CN)c3OC)nc12 [Compound 76]
EC50 [1]: 3040 nM | EC50 [2]: 719 nM

CCC[C@@H](CO)Nc1nc(N)nc2cn(Cc3c(OC)cc(C(CN)N(C)CCC)cc3OC)nc12 (some centres unmarked) [Compound 223]
EC50 [1]: 4840 nM | EC50 [2]: 1800 nM

CCCCNc1nc(N)nc2cn(Cc3ccc(CN)cn3)nc12 [Compound 142]
EC50 [1]: 354 nM | EC50 [2]: 3220 nM

CCCCNc1nc(N)nc2cn(Cc3ccon3)nc12 [Compound 117]
EC50 [1]: 751 nM | EC50 [2]: 2200 nM

CCCCNc1nc(N)nc2cn(Cc3ccc(C(C)N(C)CCC)cc3OC)nc12 (centres unmarked) [Compound 240]
EC50 [1]: 50.7 nM | EC50 [2]: 1090 nM

CCCCNc1nc(N)nc2cn(Cc3c(OC)cc(N)cc3OC)nc12 [Compound 65]
EC50 [1]: 119 nM | EC50 [2]: 1020 nM

CCCCNc1nc(N)nc2cn(Cc3c(OC)cc(NCCN4C(=O)C=CC4=O)cc3OC)nc12 [Compound 134]
EC50 [1]: 1520 nM | EC50 [2]: 14400 nM

CCCCNc1nc(N)nc2cn(Cc3c(C)cccc3OC)nc12 [Compound 39]
EC50 [1]: 239 nM | EC50 [2]: 748 nM

CCCCC(CCC)Nc1nc(N)nc2cn(Cc3ccccc3OC)nc12 (centres unmarked) [Compound 19]
EC50 [1]: 435 nM | EC50 [2]: > 29900 nM

CCCC(Nc1nc(N)nc2cn(Cc3c(OC)cccc3OC)nc12)C(F)(F)F (centres unmarked) [Compound 124]
EC50 [1]: 266 nM | EC50 [2]: > 9980 nM

C=CCN(C)Cc1cnc(Cn2cc3nc(N)nc(NCCCC)c3n2)c(OC)c1 [Compound 157]
EC50 [1]: 55.9 nM | EC50 [2]: 370 nM

CCCCNc1nc(N)nc2cn(Cc3ccc(CN4CCNCC4)cc3OC)nc12 [Compound 131]
EC50 [1]: 680 nM | EC50 [2]: 1250 nM

CCCCNc1nc(N)nc2cn(Cc3ccc4c(c3)CCC4N)nc12 (centres unmarked) [Compound 235]
EC50 [1]: 361 nM | EC50 [2]: 2470 nM

CCCCNc1nc(N)nc2cn(Cc3c(OC)ccc(CN4CCNCC4)c3OC)nc12 [Compound 78]
EC50 [1]: 2650 nM | EC50 [2]: 2560 nM

CCCCNc1nc(N)nc2cn(Cc3c(OC)cc(CNC)cc3OC)nc12 [Compound 109]
EC50 [1]: 91.9 nM | EC50 [2]: 99.8 nM

CCCCNc1nc(N)nc2cn(Cc3nocc3C)nc12 [Compound 140]
EC50 [1]: 252 nM | EC50 [2]: 1720 nM

COc1cccc(OC)c1Cn1cc2nc(N)nc(NCC(C)O)c2n1 (centres unmarked) [Compound 48]
EC50 [1]: 7720 nM | EC50 [2]: > 29900 nM

CCCCNc1nc(N)nc2cn(Cc3cc(N4CCNCC4)ccc3OC)nc12 [Compound 59]
EC50 [1]: 964 nM | EC50 [2]: 2640 nM

CCC[C@@H](CO)Nc1nc(N)nc2cn(Cc3c(OC)cc(CN(C)C)cc3OC)nc12 [Compound 199]
EC50 [1]: 108 nM | EC50 [2]: 39.9 nM

CCC[C@H](C)Nc1nc(N)nc2cn(Cc3c(OC)cc(CNC)cc3OC)nc12 [Compound 190]
EC50 [1]: 187 nM | EC50 [2]: 2210 nM

CCCCNc1nc(N)nc2cn(Cc3ccc(C4CNCCN4)cc3OC)nc12 (centres unmarked) [Compound 234]
EC50 [1]: 1490 nM | EC50 [2]: 9820 nM

CCCCNc1nc(N)nc2cn(Cc3ccc(NCCCN)cn3)nc12 [Compound 144]
EC50 [1]: 170 nM | EC50 [2]: 3810 nM

CCCCNc1nc(N)nc2cn(Cc3ccccc3Cl)nc12 [Compound 4]
EC50 [1]: 578 nM | EC50 [2]: 6540 nM

CCCCNc1nc(N)nc2cn(Cc3ccc(N4CCNCC4)cn3)nc12 [Compound 123]
EC50 [1]: 743 nM | EC50 [2]: 880 nM

CCC[C@@H](C)Nc1nc(N)nc2cn(Cc3c(OC)cc(CNC)cc3OC)nc12 [Compound 189]
EC50 [1]: 90 nM | EC50 [2]: 290 nM

CCCCNc1nc(N)nc2cn(Cc3c(OC)cccc3OC)nc12 [Compound 5]
EC50 [1]: 72.7 nM | EC50 [2]: 328 nM

CCCCNc1nc(N)nc2cn(Cc3cccnc3OC)nc12 [Compound 100]
EC50 [1]: 74.4 nM | EC50 [2]: 499 nM

CCC[C@@H](C)Nc1nc(N)nc2cn(Cc3c(OC)cccc3OC)nc12 [Compound 113]
EC50 [1]: 19 nM | EC50 [2]: 206 nM

CCCCNc1nc(N)nc2cn(Cc3ccnn3CC)nc12 [Compound 177]
EC50 [1]: 681 nM | EC50 [2]: 2810 nM

C=CCN(C)Cc1cc(OC)c(Cn2cc3nc(N)nc(N[C@@H](C)CCC)c3n2)c(OC)c1 [Compound 183]
EC50 [1]: 30.8 nM | EC50 [2]: 380 nM

CCCCNc1nc(N)nc2cn(Cc3ccc(C(N)CN)cc3OC)nc12 (centres unmarked) [Compound 227]
EC50 [1]: 10700 nM | EC50 [2]: 10800 nM

CCCC(C)Nc1nc(N)nc2cn(Cc3c(OC)cccc3OC)nc12 (centres unmarked) [Compound 91]
EC50 [1]: 35.8 nM | EC50 [2]: 291 nM

CCCCNc1nc(N)nc2cn(Cc3cc(N4CCN(C(=O)C5CCC(CN6C(=O)C=CC6=O)CC5)CC4)ccc3OC)nc12 (centres unmarked) [Compound 70]
EC50 [1]: > 1110 nM | EC50 [2]: 908 nM

COc1cccc(OC)c1Cn1cc2nc(N)nc(NCCC(C)C)c2n1 [Compound 53]
EC50 [1]: 858 nM | EC50 [2]: > 29900 nM

CCCCNc1nc(N)nc2cn(Cc3nccnc3OC)nc12 [Compound 111]
EC50 [1]: 81.8 nM | EC50 [2]: 597 nM

CCCCNc1nc(N)nc2cn(Cc3ccc(N4CC5(CN(CCN6C(=O)C=CC6=O)C5)C4)cc3OC)nc12 [Compound 125]
EC50 [1]: 1740 nM | EC50 [2]: 18700 nM

CCCCNc1nc(N)nc2cn(Cc3ccc(CN4CC(CN)C4)cc3OC)nc12 [Compound 118]
EC50 [1]: 249 nM | EC50 [2]: 144 nM
